*1 amine or outer side, *2 acyl side, *3 side chain or, on linkers, in order; H or OH if unused. Where a SMILES comes first, the peptide text is derived from it. [ ]: non-standard residue; d: D form. The star is where a group is joined. Ac6c = NC1(C(=O)O)CCCCC1; Morpholide = C1CN(*)CCO1; Nle = CCCC[C@H](N)C(=O)O; Cbz = O=C(OCc1ccccc1)*; CO = O=C([*:1])[*:2]
Columns and labels:
Human cathepsin L = molecular target: T1, Human cathepsin L (Homo sapiens, UniProt P07711); test: Measurement of cathepsin L inhibitory activity (Z-Phe-Arg-MCA fluorescent substrate); format: biochemical; details: selectivity ratio L/K
T1 construct: purchased Calbiochem Corp
T1 sequence (P07711 114-333): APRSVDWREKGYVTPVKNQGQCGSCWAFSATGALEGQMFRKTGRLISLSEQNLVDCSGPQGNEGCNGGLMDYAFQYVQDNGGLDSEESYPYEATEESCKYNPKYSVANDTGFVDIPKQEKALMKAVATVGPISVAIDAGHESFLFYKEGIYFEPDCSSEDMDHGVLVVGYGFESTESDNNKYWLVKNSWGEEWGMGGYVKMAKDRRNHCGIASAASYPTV
Procedure: (§1) Human cathepsin L (Calbiochem Corp.) was used for measurement. Activity was measured based on decomposition of the fluorescent substrate Z-Phe-Arg-MCA (Peptide Institute, Inc.) following the method of Barrett et al.^3). Namely, the decomposition of […] Z-Phe-Arg-MCA by cathepsin L was measured in 100 mM sodium acetate, 5 mM EDTA, 4 mM urea, 8 mM cysteine and 0.005% Brij35 at pH 5.5. The reaction was carried out for 30 minutes at 30° C., and stopped by the addition of 2×10^−5 M Calpeptin. After stopping the reaction, fluorescent intensity was measured at an excitation wavelength of 355 nm and measurement wavelength of 460 nm. Inhibition of cathepsin L by the compounds was examined using the reaction system described above.

Human cathepsin B = molecular target: T2, Human cathepsin B (Homo sapiens, UniProt P07858); test: Measurement of cathepsin B inhibitory activity (Z-Arg-Arg-MCA fluorescent substrate); format: biochemical; details: selectivity ratio B/K
T2 construct: purchased Calbiochem Corp
Procedure: as §1, with “B” for “L”, “Z-Arg-Arg-MCA” for “Z-Phe-Arg-MCA”, “sodium/potassium phosphate, 1” for “sodium acetate, 5”, “EDTA,” for “EDTA, 4 mM urea,”, “6.0.” for “5.5.”

| L/K (ratio of cathepsin L IC50 to cathepsin K IC50) (Human cathepsin L) | B/K (ratio of cathepsin B IC50 to cathepsin K IC50) (Human cathepsin B) | SMILES |
| --- | --- | --- |
| 74 | 58 | CC(C)C[C@H](NC(=O)OCc1ccccc1)C(=O)N[C@H](C=O)C(C)C [Reference Example 184, N—[N-[(Phenylmethoxy)carbonyl]-L-leucyl]-L-valinal] (Cbz-Leu-Val-aldehyde) |
| 35 | 30 | CC(C)C[C@H](NC(=O)c1ccco1)C(=O)N[C@H](C=O)C(C)C [Reference Example 187, N—[N-(2-Furanylcarbonyl)-L-leucyl]-L-valinal] |
| 370 | 87 | CC(C)[C@@H](C=O)NC(=O)C1(NC(=O)c2ccco2)CCCCC1 [Example 9, N-[[1-[(2-Furanylcarbonyl)amino]cyclohexyl]carbonyl]-L-valinal] |
| 400 | 230 | CC(C)[C@@H](C=O)NC(=O)C1(NC(=O)OCc2ccccc2)CCCCC1 [Example 7, N-[[1-[[(Phenylmethoxy)carbonyl]amino]cyclohexyl]carbonyl]-L-valinal] (Cbz-[Ac6c]-Val-aldehyde) |

The remaining lines, values behind:

| SMILES | L/K (ratio of cathepsin L IC50 to cathepsin K IC50) (Human cathepsin L) | B/K (ratio of cathepsin B IC50 to cathepsin K IC50) (Human cathepsin B) |
| --- | --- | --- |
| CCCC[C@@H](C=O)NC(=O)[C@H](CC(C)C)NC(=O)N1CCOCC1 [Reference Example 186, N—[N-(4-Morpholinylcarbonyl)-L-leucyl]-L-norleucinal] | 7.3 | 4.3 |
| CCCC[C@@H](C=O)NC(=O)C1(NC(=O)OCc2ccccc2)CCCCC1 [Example 8, N-[[1-[[(Phenylmethoxy)carbonyl]amino]cyclohexyl]carbonyl]-L-norleucinal] (Cbz-[Ac6c]-[Nle]-aldehyde) | 50 | 35 |
| CCCC[C@@H](C=O)NC(=O)C1(NC(=O)N2CCOCC2)CCCCC1 [Example 10, N-[[1-[(4-Morpholinylcarbonyl)amino]cyclohexyl]carbonyl]-L-norleucinal] ({Morpholide-CO}-[Ac6c]-[Nle]-aldehyde) | 21 | 12 |
| CCCC[C@@H](C=O)NC(=O)[C@H](CC(C)C)NC(=O)OCc1ccccc1 [Reference Example 185, N—[N-[(Phenylmethoxy)carbonyl]-L-leucyl]-L-norleucinal] | 15 | 11 |

From patent US8957205B2, “Cycloalkane carboxamide derivatives and production process of same” (Seikagaku Corporation, priority 2006, dated 2015)
